# In paper PMC10289903 (Investigational New Drugs, 2023):
# Read-outs that look alike come from different tables or passages of the source.
# Tests used:
# [1] = test system: locally advanced or metastatic solid tumors; assay: Preliminary antitumor activity (ORR, DCR, SD, PFS; RECIST v1.1); type: in vivo, human; details: for Duration of response: confirmed partial response
# Description: Preliminary efficacy was assessed using objective response rate (ORR) in patients with measurable disease, disease control rate (DCR) and progression-free survival (PFS), all in accordance with RECIST v1.1 [17]. Responses for ORR required confirmation after at least 4 weeks.
# After initiation of treatment, tumor burden was assessed at baseline and every 8 weeks (± 1 week) for the qd 5/9 dosing, and every 9 weeks (± 1 week) for the qd 5/2 treatment schedule, respectively, using computed tomography or magnetic resonance imaging of the chest and abdomen or pelvis.
# The per protocol analysis set was defined as a subset of the full analysis set, excluding subjects having an important protocol deviation, to be used for analyses of efficacy endpoints if appropriate.
# [2] = human, in vivo
# Description: (§1) Analyses were performed for the bid dosing schedules and RP2D only.
# (§2) Water was restricted from 1 h pre-dose until 1 h post-dose, except for the 240 mL of water administered with treatment.
# (§3) Natural log-transformed AUC and Cmax were compared between fed/fasted conditions using a mixed effects analysis of variance model, which was fitted separately for each assessed dose. Estimates of the mean difference between treatments and corresponding 90% CI were calculated using a linear mixed effects model with a fixed effect for treatment (fed versus fasted) and a random effect for patients. Back transformed geometric means and 95% CIs were estimated for each condition.
# [3] = test system: recurrent ovarian cancer with progressive disease while receiving PARPi; details: cited from earlier work
# clinical = details: human, in vivo
# Description: as §1, §2, §3
# [4] = qd 2.3: 250 mg qd 5/2 weekly (n=10)
# [5] = qd 3.3: 300 mg 5/2 weekly (n=2)
compound,measurement,setting,value
"C=CCn1c(=O)c2cnc(Nc3ccc(N4CCN(C)CC4)cc3)nc2n1-c1cccc(C(C)(C)O)n1 [adavosertib, Adavosertib]",Duration of response,"[1]; 1 patient with anal carcinoma, qd 1.2 cohort",6.9 months
same,Duration of response,"[1]; 1 patient with thymoma, bid 2 cohort",3.7 months
same,"DCR, CP + PR + SD/n (%)",[1]; Total (N=62),48.4 CP + PR + SD/n (%)
same,"Median PFS, months (95% CI)",[1]; Total (N=62),2.7 (2.0–3.8) months
same,"ORR, CP + PR/n (%)","[1]; Total, 58 patients with measurable disease at baseline",3.4 CP + PR/n (%)
same,Patients with confirmed (or unconfirmed) complete responses,[1]; all cohorts,None
same,Patients alive and progression-free at data cutoff,[1]; all cohorts (N=62),14 (22.6%) n (%)
same,Patients who had experienced a PFS event at data cutoff,[1]; all cohorts (N=62),47 (75.8%) n (%)
same,"DCR, CP + PR + SD/n (%)",[1]; bid 2: 150 mg bid 5/9 (n=6),2 (33.3) CP + PR + SD/n (%)
same,"Median PFS, months (95% CI)",[1]; bid 2: 150 mg bid 5/9 (n=6),1.9 (1.0–NC) months
same,Patients progression-free at 6 months after first dose,"[1]; of 62 patients, 95% CI 10.0–32.2",19.8%
same,"DCR, CP + PR + SD/n (%)",[1]; qd 1.1: 200 mg qd 5/9 (n=5),2 (40.0) CP + PR + SD/n (%)
same,"Median PFS, months (95% CI)",[1]; qd 1.1: 200 mg qd 5/9 (n=5),2.0 (0.6–NC) months
same,"ORR, CP + PR/n (%)",[1]; qd 1.1: 200 mg qd 5/9 (n=5),0 CP + PR/n (%)
same,"DCR, CP + PR + SD/n (%)",[1]; qd 1.2: 200 mg qd 5/2 (n=6),2 (33.3) CP + PR + SD/n (%)
same,"Median PFS, months (95% CI)",[1]; qd 1.2: 200 mg qd 5/2 (n=6),2.7 (1.2–9.0) months
same,"DCR, CP + PR + SD/n (%)",[1]; qd 2.1: 250 mg qd 5/9 (n=4),1 (25.0) CP + PR + SD/n (%)
same,"Median PFS, months (95% CI)",[1]; qd 2.1: 250 mg qd 5/9 (n=4),1.9 (1.8–4.1) months
same,"ORR, CP + PR/n (%)",[1]; qd 2.1: 250 mg qd 5/9 (n=4),0 CP + PR/n (%)
same,"DCR, CP + PR + SD/n (%)",[1]; qd 2.2: 250 mg qd 5/2 (n=3),2 (66.7) CP + PR + SD/n (%)
same,"Median PFS, months (95% CI)",[1]; qd 2.2: 250 mg qd 5/2 (n=3),3.7 (1.2–11.0) months
same,"ORR, CP + PR/n (%)",[1]; qd 2.2: 250 mg qd 5/2 (n=3),0 CP + PR/n (%)
same,"DCR, CP + PR + SD/n (%)",[1]; [4],3 (30.0) CP + PR + SD/n (%)
same,"Median PFS, months (95% CI)",[1]; [4],2.1 (0.6–4.1) months
same,"ORR, CP + PR/n (%)",[1]; [4],0 CP + PR/n (%)
same,"DCR, CP + PR + SD/n (%)",[1]; qd 3.1: 300 mg qd 5/9 (n=4),3 (75.0) CP + PR + SD/n (%)
same,"Median PFS, months (95% CI)",[1]; qd 3.1: 300 mg qd 5/9 (n=4),7.6 (2.7–9.3) months
same,"ORR, CP + PR/n (%)",[1]; qd 3.1: 300 mg qd 5/9 (n=4),0 CP + PR/n (%)
same,"DCR, CP + PR + SD/n (%)",[1]; qd 3.2: 300 mg qd 5/2 (n=16),11 (68.8) CP + PR + SD/n (%)
same,"Median PFS, months (95% CI)",[1]; qd 3.2: 300 mg qd 5/2 (n=16),3.2 (2.1–5.0) months
same,"ORR, CP + PR/n (%)",[1]; qd 3.2: 300 mg qd 5/2 (n=16),0 CP + PR/n (%)
same,"DCR, CP + PR + SD/n (%)",[1]; [5],0 CP + PR + SD/n (%)
same,"Median PFS, months (95% CI)",[1]; [5],2.6 (NC–NC) months
same,"ORR, CP + PR/n (%)",[1]; [5],0 CP + PR/n (%)
same,"AUC0–10, geometric LS mean (95% CI)",[2]; 125 mg,"1658.8 (1017.1, 2705.3) h*nmol/L"
same,"AUC0–10, geometric LS mean (95% CI)",[2]; 150 mg,"3228.0 (1698.9, 6133.3) h*nmol/L"
same,"AUC0–10, geometric LS mean (95% CI)",[2]; 300 mg,"5340.4 (65.0, 439027.6) h*nmol/L"
same,Cmax,[2]; 300 mg,819 nM
same,ORR,"[3]; adavosertib alone, 90% CI 12–38",23%
same,ORR,"[3]; combination therapy with PARP inhibitor, 90% CI 16–44",29%
same,Cmax,clinical; 125 mg,276 nM
same,Cmax,"clinical; 150 mg, Cmax, geometric LS mean (95% CI)",464 nM
